# Activity calls are given as the source filed them.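 How the source made its calls: active means falling signal with an AC50 no greater than ten times the top valid dose tested for that sample; inconclusive means flat response with 30 to 70% inhibition, or poor fit; inactive means activity in the rising direction, and the rest.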
# Legend:
# [1] = system: V. harveyi MM32 AI-2 bioluminescence, 5 h; experiment: AI-2 driven bioluminescence decrease, LuxPQ pathway – strain MM32 LuxS-null, luminescence, dry powder, set 4, mechanism study for V. harveyi quorum sensing inhibitors, dose response (AID 493116)
# [2] = as above; conditions: V. harveyi MM32 AI-2 bioluminescence, 5 h; at 16 µM (top of the series)
Structure (SMILES),AC50 [1],"activity change, negative = inhibition [2]"
Cn1cnc(S(=O)(=O)Nc2ccccc2Cl)c1,> 16 µM (inactive),
Cn1cnc(S(=O)(=O)Nc2ccccc2F)c1,,-0.646% (inactive)
CC(=O)Nc1ccccc1NS(=O)(=O)c1cn(C)cn1,,-2.94% (inactive)
O=S(=O)(Nc1ccccn1)c1ccc(Oc2ccccc2)cc1,2.25 µM,
Cn1cnc(S(=O)(=O)Nc2ccc(OC(F)(F)F)cc2)c1,2.39 µM,
COc1ccccc1NS(=O)(=O)c1cn(C)cn1,,-4.54% (inactive)
O=S(=O)(Nc1cccnc1)c1ccc(Oc2ccccc2)cc1,0.538 µM,
C=Cn1c(C(=O)O)ccc1-c1ccc(OC)cc1,6.14 µM,
CCc1ccc(-c2ccc(C(=O)O)n2CC)cc1,,1.73% (inactive)
C=Cn1c(C(=O)O)ccc1-c1ccc(CC)cc1,2.34 µM,
CCc1ccc(-c2ccc(C(=O)O)n2C)cc1,2.84 µM,
O=C1C=C/C(=C/Br)O1,2.29 µM,
CN(C)C(=O)c1ccccc1NS(=O)(=O)c1cn(C)cn1,,0.78% (inactive)
Cc1ccccc1NS(=O)(=O)c1cn(C)cn1,> 16 µM (inactive),

# — PubChem BioAssay AID493116 (Broad Institute, 2011)
